# Where “and” joins values, the source holds several entries; their conditions need not be identical. Equal values may be shown once. Entries after “also recorded” stand apart in the source; their conditions may differ.
# How the values were obtained:
# Candida albicans = experiment: MIC, broth dilution in LB-S; assay type: cell-based; set-up: unit not given beside the values; conditions: Candida albicans (CAN105); Table 1a
# Procedure: The biological activity of the peptides can be determined by standard methods known to those of skill in the art, such as “minimal inhibitory concentration (MIC)” assay described in the present examples, whereby the lowest concentration at which no change in OD is observed for a given period of time is recorded as MIC. Alternatively, “fractional inhibitory concentration (FIC)” is also useful for determination of synergy between the peptides of the invention, or the peptides in combination with known antibiotics. FICs are performed by checkerboard titrations of peptides in one dimension of a microtiter plate, and of antibiotics in the other dimension, for example. The FIC is calculated by looking at the impact of one antibiotic on the MIC of the other and vice versa. […] Preferably, an FIC of less than 0.5 is obtained for synergism. As used herein, FIC can be determined as follows: [formula]
# Briefly, cells were grown overnight at 37° C. in LB-S (Luria broth without any salt supplement) and diluted one in 10,000 in the same medium to give concentrations of about 10^4 to 10^5 CFU/ml. The broth dilutions were set up in a 96 well microtiter plate by putting 200 μl of LB-S containing the initial concentration of antibiotic or compound in column 1 and 100 μl of the same medium in columns 2-12. […] The next day the plates were scored for growth in the wells, and the MIC determined.
# Red Blood Cells = experiment: Red Blood Cell lysis; assay type: cell-based
# RAW cells = experiment: RAW cell viability by Trypan blue exclusion; assay type: cell-based
# [1] = system: LPS-induced TNF in RAW 264.7 macrophage cells; experiment: Inhibition of LPS-mediated TNF induction in macrophages (L929 cytotoxic assay); assay type: cell-based
# Procedure: RAW 264.7 macrophage cells were grown by seeding 10^6 cells into a 162 cm^2 cell culture flask and incubated at 37° C., 5%CO2 for 1 week. RAW cell media [(Dulbecco's Modified Eagle Medium with Hepes buffer 450 ml; 2.4 mML-glutamine 3 ml (400 mM); Pen/Strep 3 ml (10^4U/ml of Pen, 1 mg/ml strep); and 10% heat inactivated fetal bovine serum (FBS) 50 ml)] was then completely removed from flasks. 10 mls of cell dissociation solution (Sigma) was added to each flask and inc; bated at 37° C. for 10 minutes. Cells were removed from flasks, diluted in RAW cell media and centrifuged for 6 minutes. The cell pellet was resuspended in 5 ml of media/flask used, 100 μl cell suspension was removed and added to 400 ∥l of trypan blue and cells were counted using a hemocytometer. The cell suspension was diluted to 1×10^6 cells/ml and 1 ml of suspension was added per well of a 24 well plate. The 24 well plates were incubated at 37° C., 5% CO2 overnight for use in the assay.
# After an overnight incubation, the media was aspirated from all the wells. 100 μl of Lipopolysaccharide (LPS) was added at 100 ng/100 μl. CEME, CEMA or MBI 29 was added at the desired concentration/100 μl to specified wells. […] The plates were then incubated for six hours at 37° C., 5% CO2. The supernatant was then removed from the wells and stored overnight at 4° C. For those wells in which whole bacteria were added directly to the wells, the supernatant was centrifuged in 0.2 μm filter eppendorf tubes for 5 minutes.
# The supernatants were then used in cell cytotoxic L929 assay. The samples were transferred to 96 well plates. […]
# TNF-sensitive L929 mouse fibroblast cells were grown by seeding 10^6 cells into a 162 cm^2 cell culture flask and left to grow for 1 week. […] The pellet was resuspended in 5 mls of fresh L929 media/flask and counted (same as RAW cells). […]
# The plates were read at 570 nm in a ELISA plate reader with 690 nm reference filter. […]
# In order to determine how rapidly the cationic peptides reduced LPS-induced TNF production, E. coli 0111:B4 was added at time 0 to RAW macrophages. […] Levels of TNF were measured after 6 hours. […]
# E. coli ML 35 = experiment: Inner membrane permeabilization (β-galactosidase, ONPG); assay type: cell-based; conditions: 4 ug peptide; +5 mM Mg
# Procedure: Inner membrane permeability was determined by measurement in E. coli ML 35 of β-galactosidase activity using ONPG as a substrate. Normally ONPG cannot pass across the cytoplasmic membrane to permit hydrolysis by the cytoplasmic enzyme β-galactosidase. However, cationic peptides, by permeabilizing the inner membrane, unmasks this enzyme leading to color development as ONP is released. […] Addition of citrate increased the lag time before the peptides were able to permeabilize the membranes. When the experiments were executed in cation adjusted media (CAMHB), the lag time was increased up to 30 minutes.
# P. aeruginosa = experiment: microbe, parasite or virus in culture; conditions: agent alone
# Procedure: FICs are performed by checkerboard titrations of peptides in one dimension of a microtiter plate, and of antibiotics in the other dimension, for example. The FIC is calculated by looking at the impact of one antibiotic on the MIC of the other and vice versa. […] Preferably, an FIC of less than 0.5 is obtained for synergism. As used herein, FIC can be determined as follows: [formula]
# Synergism is identified as an FIC of about ≦0.5.
Molecule,MIC (Candida albicans),RBC Lysis (Red Blood Cells),amount causing no apparent decrease in RAW cell viability (RAW cells),"TNF induction in washed RAW cells pre-incubated with peptide ([1]; 20 μg MBI 29 for 60 minutes, washed 3 times, then 10 ng or 100 ng LPS)","inhibition of TNF induction by LPS ([1]; E. coli 0111:B4 LPS, peptide added at 0, 30 and 60 minutes, TNF after 6 hours)",reduction of LPS-induced TNF when added after LPS ([1]; added 60 minutes after the addition of LPS),effect of 5 mM Mg++ on inner membrane permeabilization (E. coli ML 35),"MIC (P. aeruginosa; P. aeruginosa isolate 27, strain 14644)","MIC (P. aeruginosa; P. aeruginosa isolate 28, strain 15036)","MIC (P. aeruginosa; Table 33, P. aeruginosa isolate 23, strain ATCC 27853)","MIC (P. aeruginosa; Table 33, P. aeruginosa isolate 24, strain 34)","MIC (P. aeruginosa; Table 33, P. aeruginosa isolate 25, strain 923-1)","MIC (P. aeruginosa; Table 33, P. aeruginosa isolate 26, strain 3101)","MIC (P. aeruginosa; Table 33, P. aeruginosa isolate 27, strain 14644)","MIC (P. aeruginosa; Table 33, P. aeruginosa isolate 28, strain 15036)","MIC (P. aeruginosa; Table 33, P. aeruginosa isolate 29, strain 15545)","MIC (P. aeruginosa; Table 33, P. aeruginosa isolate 30, strain B3999-1)","MIC (P. aeruginosa; Table 33, P. aeruginosa isolate 31, strain U7688-1)","MIC (P. aeruginosa; Table 33, P. aeruginosa isolate 32, strain W2897-1)","MIC (P. aeruginosa; Table 33, P. aeruginosa isolate 33, strain W5483-2)"
KWKLFKKIGIGAVLKVLTTGLPALIS [CEME],≧64,–,–,–,–,–,–,–,–,–,–,–,–,–,–,–,–,–,–,–
CC[C@H](C)[C@H](NC(=O)[C@H](CC(C)C)NC(=O)[C@H](C)NC(=O)[C@@H]1CCCN1C(=O)[C@H](CC(C)C)NC(=O)CNC(=O)[C@@H](NC(=O)[C@@H](NC(=O)[C@H](CC(C)C)NC(=O)[C@@H](NC(=O)[C@H](CCCCN)NC(=O)[C@H](CCCCN)NC(=O)[C@@H](NC(=O)[C@H](C)NC(=O)[C@@H](NC(=O)[C@@H](NC(=O)[C@H](CC(C)C)NC(=O)[C@H](CCCCN)NC(=O)[C@H](CCCCN)NC(=O)[C@@H](NC(=O)[C@H](Cc1ccccc1)NC(=O)[C@H](CO)NC(=O)[C@H](CCCCN)NC(=O)[C@H](Cc1c[nH]c2ccccc12)NC(=O)[C@@H](N)CCCCN)[C@@H](C)CC)[C@@H](C)O)[C@@H](C)O)C(C)C)C(C)C)[C@@H](C)O)[C@@H](C)O)C(=O)N[C@@H](CO)C(=O)O [MBI 29],–,>55 µg/mL,Up to 50 μg,"14,000-20,000 Units of TNF per ml",inhibited TNF induction by LPS in a similar manner to polymyxin B,effective at reducing the ability of LPS to induce TNF; also recorded: distinct and reproducible advantage over polymyxin B,the least affected by any of the conditions,128 µg/mL and 123 µg/mL,128 µg/mL,32 μg · mL^1,16 μg · mL^1,32 μg · mL^1,32 μg · mL^1,32 μg · mL^1,32 μg · mL^1,32 μg · mL^1,32 μg · mL^1,32 μg · mL^1,32 μg · mL^1,32 μg · mL^1

# From patent US6465429B1, “Antimicrobial cationic peptides” (priority 1995, dated 2002)
